pEC50, pKi: −log10 of the molar value. Calls of active or inactive are those of the source. The calls are words filed in the database; no cut-off is given here.
Experiments:
[1] = target: T1, Neurotensin receptor type 2 (Rattus norvegicus, UniProt Q63384); test: Agonist activity at rat NTS2 overexpressed in CHO-k1 cells assessed as calcium mobilization by FLIPR assay; assay type: functional, cell-based; conditions: for pEC50: read-out: EC50; for EC50: cho-k1
T1 sequence (Q63384 whole entry): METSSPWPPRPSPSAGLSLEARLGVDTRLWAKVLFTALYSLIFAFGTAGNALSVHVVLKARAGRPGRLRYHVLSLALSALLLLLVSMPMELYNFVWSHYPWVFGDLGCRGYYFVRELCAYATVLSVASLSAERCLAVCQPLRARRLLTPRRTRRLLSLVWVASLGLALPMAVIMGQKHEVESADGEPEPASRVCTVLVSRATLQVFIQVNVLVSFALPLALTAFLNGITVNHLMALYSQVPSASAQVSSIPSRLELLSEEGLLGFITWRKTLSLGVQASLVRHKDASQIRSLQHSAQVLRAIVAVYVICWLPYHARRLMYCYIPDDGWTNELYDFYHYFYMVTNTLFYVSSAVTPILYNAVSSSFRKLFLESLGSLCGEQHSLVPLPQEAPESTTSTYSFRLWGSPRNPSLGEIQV

[2] = target: T2, Neurotensin receptor type 2 (Rattus norvegicus) (UniProt Q63384); test: Agonist activity at rat NTS2 overexpressed in CHO-k1 cells assessed as calcium mobilization by FLIPR assay relative to SR142948a; assay type: functional, cell-based
T2 sequence (whole entry): T1 sequence (Q63384 whole entry)

[3] = target: Neurotensin receptor type 1 (Rattus norvegicus, UniProt P20789); test: Displacement of [I125]neurotensin from rat NTS1 overexpressed in CHO-k1 cells by competitive binding Assay; assay type: cell-based
Neurotensin receptor type 1, sequence (P20789 whole entry): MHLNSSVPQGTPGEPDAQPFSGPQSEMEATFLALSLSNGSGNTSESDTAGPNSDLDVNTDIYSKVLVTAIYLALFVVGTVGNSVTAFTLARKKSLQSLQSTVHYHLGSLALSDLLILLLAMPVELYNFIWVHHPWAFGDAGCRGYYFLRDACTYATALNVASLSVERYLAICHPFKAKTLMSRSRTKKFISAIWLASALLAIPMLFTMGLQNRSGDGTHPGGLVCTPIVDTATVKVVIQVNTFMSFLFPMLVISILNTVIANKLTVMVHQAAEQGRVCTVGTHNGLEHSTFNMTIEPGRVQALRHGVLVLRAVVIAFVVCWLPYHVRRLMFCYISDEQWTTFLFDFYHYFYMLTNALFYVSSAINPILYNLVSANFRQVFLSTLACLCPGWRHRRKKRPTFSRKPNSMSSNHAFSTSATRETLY

[4] = target: T1, Neurotensin receptor type 2; test: Displacement of [I125]neurotensin from rat NTS2 overexpressed in CHO-k1 cells by competitive binding Assay; assay type: cell-based
[5] = target: Neurotensin receptor type 1 (Rattus norvegicus) (UniProt P20789); test: Antagonist activity at rat NTS1 overexpressed in CHO-k1 cells assessed as blockade of neurotensin-mediated calcium mobilization after 15 mins by FLIPR assay; assay type: functional, cell-based
Neurotensin receptor type 1 (Rattus norvegicus), sequence (P20789 whole entry): as above

| SMILES | pEC50 [1] | Emax [2] [%] | pKi [3] | pKi [4] | Ke [5] | EC50 [1] |
| --- | --- | --- | --- | --- | --- | --- |
| COc1ccccc1-c1cc(NC(=O)C2(C(=O)O)CCCCC2)nn1-c1ccc(F)cc1 | 6.02 | 13 | < 4.60 | 5.20 | inactive |  |
| COc1cccc(OC)c1-c1cc(NC(=O)C2(C(=O)O)CCCCC2)nn1-c1ccc(F)cc1 | 7.26 | 10 | < 4.60 | 6.57 | inactive |  |
| COc1ccccc1-c1cc(C(=O)NC2(C(=O)O)CCCCC2)nn1-c1ccc(F)cc1 |  |  | < 4.60 |  |  |  |
| COc1cccc(OC)c1-c1cc(C(=O)NC2(C(=O)O)CCCCC2)nn1-c1cccc2ccccc12 |  |  | 5.92 |  |  |  |

More lines, now with the values ahead:

| pEC50 [1] | Emax [2] [%] | pKi [3] | pKi [4] | Ke [5] | EC50 [1] | SMILES |
| --- | --- | --- | --- | --- | --- | --- |
|  |  | < 5.00 | < 5.00 |  | Not Active | COc1cccc(OC)c1-c1cc(CN[C@H](C(=O)O)C2CCCCC2)nn1-c1ccnc2cc(Cl)ccc12 |
|  |  | 5.14 | 6.85 |  | Not Active | COc1cccc(OC)c1-c1cc(NC(=O)C2(C(=O)O)CCCCC2)nn1-c1ccnc2cc(Cl)ccc12 |
|  |  | 6.75 |  |  |  | COc1cccc(OC)c1-c1cc(C(=O)NC2(C(=O)O)CCCCC2)nn1-c1ccnc2cc(Cl)ccc12 |
|  |  | 4.99 | 6.89 |  | Not Active | COc1cccc(OC)c1-c1cc(NC(=O)C2(C(=O)O)CCCCC2)nn1-c1cccc2ccccc12 |

From ChEMBL document CHEMBL3400069, “The amide linker in nonpeptide neurotensin receptor ligands plays a key role in calcium signaling at the neurotensin receptor type 2” (Bioorg Med Chem Lett, 2015)
